The values that follow come from ChEMBL document CHEMBL2321761, “Discovery of novel dual inhibitors of the wild-type and the most prevalent drug-resistant mutant, S31N, of the M2 proton channel from influenza A virus” (J Med Chem, 2013).

Each structure is given as a SMILES string. Activity calls are given as the source filed them. The calls are words filed in the database; no cut-off is given here.

The test system of experiment [1] is Influenza A virus. Nature of the experiment: Antiviral activity against influenza A virus A/WSN/33-S31N infected in dog MDCK cells after 2 days by naphthalene black dye staining based plaque reduction assay. Format: functional, organism-based.
The subject of experiment [2] is Influenza A virus. Nature of the experiment: Antiviral activity against wild type influenza A virus A/WSN/33-N31S infected in dog MDCK cells at 1 uM after 2 days by naphthalene black dye staining based plaque reduction assay. Format: functional, organism-based.

In experiment [1], `NC12CC3CC(CC(C3)C1)C2` [AMANTADINE] showed an EC50 of 22.5 µM.
Take `Oc1ccc(CNC23CC4CC(CC(C4)C2)C3)c(O)c1`: in experiment [2], the inhibition entry was “Active”. Besides, in experiment [1], it took 3.2 µM to reach a half-maximal effect (EC50).
